Source: ChEMBL document CHEMBL4043269, “Synthesis and structure activity relationships of carbamimidoylcarbamate derivatives as novel vascular adhesion protein-1 inhibitors” (Bioorg Med Chem, 2017)

Key:
[1] = target: T1, Amine oxidase [copper-containing] 3 (Homo sapiens, UniProt Q16853); experiment: Inhibition of human VAP-1 expressed in CHO cells preincubated for 20 mins followed by [14C]-benzylamine addition measured after 1 hr by scintillation spectrometric analysis; type: cell-based
T1 sequence (Q16853 whole entry): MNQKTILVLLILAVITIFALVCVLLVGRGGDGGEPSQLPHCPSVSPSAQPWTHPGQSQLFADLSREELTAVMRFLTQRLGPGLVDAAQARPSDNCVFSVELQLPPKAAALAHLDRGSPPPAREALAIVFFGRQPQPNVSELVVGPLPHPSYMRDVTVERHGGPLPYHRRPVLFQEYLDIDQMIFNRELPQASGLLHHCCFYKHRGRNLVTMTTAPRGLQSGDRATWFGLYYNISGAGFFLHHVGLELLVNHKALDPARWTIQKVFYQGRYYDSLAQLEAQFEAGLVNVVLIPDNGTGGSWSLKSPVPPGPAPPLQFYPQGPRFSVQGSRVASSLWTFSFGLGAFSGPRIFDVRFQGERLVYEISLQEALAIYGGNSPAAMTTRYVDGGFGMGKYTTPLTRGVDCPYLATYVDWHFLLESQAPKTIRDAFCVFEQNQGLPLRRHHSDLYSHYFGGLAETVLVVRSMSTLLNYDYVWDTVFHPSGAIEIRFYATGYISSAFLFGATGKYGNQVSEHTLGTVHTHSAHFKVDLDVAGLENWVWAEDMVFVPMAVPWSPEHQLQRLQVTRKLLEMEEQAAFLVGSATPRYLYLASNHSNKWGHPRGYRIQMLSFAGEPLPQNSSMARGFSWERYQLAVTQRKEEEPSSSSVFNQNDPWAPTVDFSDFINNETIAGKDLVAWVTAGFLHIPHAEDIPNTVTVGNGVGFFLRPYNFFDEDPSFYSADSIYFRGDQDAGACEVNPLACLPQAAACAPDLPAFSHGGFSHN

[2] = Aqueous solubility of compound in Japanese pharmacopoeia second fluid at pH 6.8 at 130 uM after 20 hrs by HPLC analysis; type: physicochemical
[3] = Stability in Wistar rat plasma assessed as parent compound remaining at 2 uM after 6 hrs by LC-MS/MS analysis relative to initial concentration; type: ADME, cell-free; details: read-out: Stability
[4] = target: CYP2C19 (Homo sapiens, UniProt P33261); experiment: Inhibition of CYP2C19 in human liver microsomes using S-mephenytoin as substrate assessed as residual activity at 5 uM after 20 mins by HPLC analysis; type: ADME; details: probe S-mephenytoin, read-out: Activity
CYP2C19, sequence (P33261 whole entry): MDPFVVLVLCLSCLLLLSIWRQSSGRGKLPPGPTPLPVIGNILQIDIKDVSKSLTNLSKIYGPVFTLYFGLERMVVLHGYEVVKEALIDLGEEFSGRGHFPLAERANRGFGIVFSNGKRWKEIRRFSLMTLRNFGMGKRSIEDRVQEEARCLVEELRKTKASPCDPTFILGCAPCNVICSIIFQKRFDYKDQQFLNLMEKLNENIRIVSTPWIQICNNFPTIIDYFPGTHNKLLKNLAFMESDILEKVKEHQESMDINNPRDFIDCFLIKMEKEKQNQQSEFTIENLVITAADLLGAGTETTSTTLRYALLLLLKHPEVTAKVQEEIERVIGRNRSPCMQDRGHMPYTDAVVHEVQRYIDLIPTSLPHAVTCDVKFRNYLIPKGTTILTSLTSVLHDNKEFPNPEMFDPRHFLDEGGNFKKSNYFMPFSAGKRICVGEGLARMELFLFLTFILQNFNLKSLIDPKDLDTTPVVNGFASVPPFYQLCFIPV

[5] = target: T2, CYP1A2 (Homo sapiens, UniProt P05177); experiment: Inhibition of CYP1A2 in human liver microsomes using phenacetin as substrate assessed as residual activity at 5 uM after 20 mins by HPLC analysis; type: ADME; details: probe phenacetin, read-out: Activity
T2 sequence (P05177 whole entry): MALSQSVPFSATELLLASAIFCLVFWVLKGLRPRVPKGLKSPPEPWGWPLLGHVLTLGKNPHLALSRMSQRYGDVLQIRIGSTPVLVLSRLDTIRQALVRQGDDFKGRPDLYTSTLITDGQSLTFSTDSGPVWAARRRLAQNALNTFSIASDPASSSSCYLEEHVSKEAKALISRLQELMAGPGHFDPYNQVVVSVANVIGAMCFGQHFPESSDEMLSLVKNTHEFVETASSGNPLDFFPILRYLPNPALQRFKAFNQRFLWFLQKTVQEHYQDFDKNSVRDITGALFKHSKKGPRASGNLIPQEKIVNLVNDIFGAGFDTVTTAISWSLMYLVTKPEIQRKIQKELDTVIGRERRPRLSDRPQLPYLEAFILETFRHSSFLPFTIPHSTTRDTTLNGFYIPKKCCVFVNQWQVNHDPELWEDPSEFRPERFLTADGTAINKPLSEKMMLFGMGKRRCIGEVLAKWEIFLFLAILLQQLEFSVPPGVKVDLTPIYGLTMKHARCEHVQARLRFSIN

[6] = target: CYP3A4 (Homo sapiens, UniProt P08684); experiment: Inhibition of CYP3A4 in human liver microsomes using midazolam as substrate assessed as residual activity at 5 uM after 20 mins by HPLC analysis; type: ADME; details: probe midazolam, read-out: Activity
CYP3A4, sequence (P08684 whole entry): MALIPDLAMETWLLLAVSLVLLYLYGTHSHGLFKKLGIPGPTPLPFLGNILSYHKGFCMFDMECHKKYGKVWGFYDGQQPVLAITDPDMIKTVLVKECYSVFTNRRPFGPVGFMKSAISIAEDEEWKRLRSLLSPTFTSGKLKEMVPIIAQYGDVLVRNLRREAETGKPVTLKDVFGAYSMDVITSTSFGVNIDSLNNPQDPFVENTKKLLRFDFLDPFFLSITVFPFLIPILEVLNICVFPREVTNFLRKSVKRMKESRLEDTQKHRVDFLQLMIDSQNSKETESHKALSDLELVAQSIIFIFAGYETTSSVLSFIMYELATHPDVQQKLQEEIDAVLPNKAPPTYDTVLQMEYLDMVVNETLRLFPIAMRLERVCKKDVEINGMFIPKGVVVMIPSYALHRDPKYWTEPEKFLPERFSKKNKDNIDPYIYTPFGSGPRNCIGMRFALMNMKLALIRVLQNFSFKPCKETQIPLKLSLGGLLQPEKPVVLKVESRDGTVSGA

[7] = target: CYP2D6 (Homo sapiens, UniProt P10635); experiment: Inhibition of CYP2D6 in human liver microsomes using dextromethorphan as substrate assessed as residual activity at 5 uM after 20 mins by HPLC analysis; type: ADME; details: probe dextromethorphan, read-out: Activity
CYP2D6, sequence (P10635 whole entry): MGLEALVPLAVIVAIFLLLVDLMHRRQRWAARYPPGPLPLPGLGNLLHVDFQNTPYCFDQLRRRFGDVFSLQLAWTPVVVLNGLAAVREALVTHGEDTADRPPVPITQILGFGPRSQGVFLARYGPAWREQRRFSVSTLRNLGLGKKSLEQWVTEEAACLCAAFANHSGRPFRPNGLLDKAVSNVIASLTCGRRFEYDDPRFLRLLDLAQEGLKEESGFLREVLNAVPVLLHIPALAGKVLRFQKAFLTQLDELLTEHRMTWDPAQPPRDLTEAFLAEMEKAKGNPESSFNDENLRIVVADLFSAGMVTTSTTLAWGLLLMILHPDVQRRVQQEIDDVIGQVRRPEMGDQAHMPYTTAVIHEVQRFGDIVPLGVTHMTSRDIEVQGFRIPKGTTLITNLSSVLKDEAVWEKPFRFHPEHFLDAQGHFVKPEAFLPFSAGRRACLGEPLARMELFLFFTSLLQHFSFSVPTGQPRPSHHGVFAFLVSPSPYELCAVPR

[8] = target: T3, CYP2C8 (Homo sapiens, UniProt P10632); experiment: Inhibition of CYP2C8 in human liver microsomes using amodiaquine as substrate assessed as residual activity at 5 uM after 20 mins by HPLC analysis; type: ADME; details: probe amodiaquine, read-out: Activity
T3 sequence (P10632 whole entry): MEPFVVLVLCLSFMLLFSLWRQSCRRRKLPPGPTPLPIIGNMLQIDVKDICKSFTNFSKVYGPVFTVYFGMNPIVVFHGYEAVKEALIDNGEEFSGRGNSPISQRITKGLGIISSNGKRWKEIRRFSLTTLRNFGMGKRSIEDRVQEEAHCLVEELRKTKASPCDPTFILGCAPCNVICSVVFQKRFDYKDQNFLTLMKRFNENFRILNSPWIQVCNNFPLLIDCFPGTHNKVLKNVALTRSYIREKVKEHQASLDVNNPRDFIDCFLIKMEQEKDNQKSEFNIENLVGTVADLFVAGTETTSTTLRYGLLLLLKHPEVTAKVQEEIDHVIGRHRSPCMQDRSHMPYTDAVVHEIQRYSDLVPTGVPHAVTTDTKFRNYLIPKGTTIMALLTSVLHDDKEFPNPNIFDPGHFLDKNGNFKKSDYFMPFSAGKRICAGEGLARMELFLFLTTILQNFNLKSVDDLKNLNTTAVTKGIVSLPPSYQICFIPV

[9] = Stability in human plasma assessed as parent compound remaining at 2 uM after 6 hrs by LC-MS/MS analysis relative to initial concentration; type: ADME, cell-free; details: read-out: Stability
[10] = Stability in cynomolgus monkey plasma assessed as parent compound remaining at 2 uM after 6 hrs by LC-MS/MS analysis relative to initial concentration; type: ADME, cell-free, Macaca fascicularis; details: read-out: Stability
[11] = Stability in Beagle dog plasma assessed as parent compound remaining at 2 uM after 6 hrs by LC-MS/MS analysis relative to initial concentration; type: ADME, cell-free, Canis lupus familiaris; details: read-out: Stability
[12] = target: CYP2C9 (Homo sapiens, UniProt P11712); experiment: Inhibition of CYP2C9 in human liver microsomes using diclofenac as substrate assessed as residual activity at 5 uM after 20 mins by HPLC analysis; type: ADME; details: probe diclofenac, read-out: Activity
CYP2C9, sequence (P11712 whole entry): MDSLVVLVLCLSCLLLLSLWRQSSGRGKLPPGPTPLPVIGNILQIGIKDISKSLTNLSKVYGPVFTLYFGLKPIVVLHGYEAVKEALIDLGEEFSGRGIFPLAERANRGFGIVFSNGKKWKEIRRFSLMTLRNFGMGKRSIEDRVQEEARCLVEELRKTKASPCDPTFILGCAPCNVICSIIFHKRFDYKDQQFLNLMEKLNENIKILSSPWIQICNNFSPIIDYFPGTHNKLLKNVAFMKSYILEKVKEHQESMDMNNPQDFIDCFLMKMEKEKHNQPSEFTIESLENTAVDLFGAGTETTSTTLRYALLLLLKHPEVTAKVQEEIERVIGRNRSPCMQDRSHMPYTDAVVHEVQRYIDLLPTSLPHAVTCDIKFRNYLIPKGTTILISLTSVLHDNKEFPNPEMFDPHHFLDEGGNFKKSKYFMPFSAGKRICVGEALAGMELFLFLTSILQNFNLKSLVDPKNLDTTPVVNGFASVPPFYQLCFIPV

Compound	IC50 [1] [nM]	solubility at 20 h, 130 µM [2] [µM]	activity at 20 min, 5 µM [4] [%]	activity at 20 min, 5 µM [5] [%]	activity at 20 min, 5 µM [6] [%]	activity at 20 min, 5 µM [7] [%]	activity at 20 min, 5 µM [8] [%]	also measured
N=C(N)NC(=O)OCc1cccc(N2CCN(C3CCOCC3)CC2)c1.O=C(O)C(O)C(O)C(=O)O	110	≥ 100						
Cl.Cl.Cl.N=C(N)NC(=O)OCc1cccc(N2CCC(N3CCOCC3)CC2)c1	160	≥ 100						
Cc1c(COC(=O)NC(=N)N)cccc1-c1cnc(N2CCOCC2)nc1.O=C(O)C(O)C(O)C(=O)O	410	34						
N=C(N)NC(=O)OCc1cccc(-c2cnc(N3CCOCC3)nc2)c1.O=C(O)C(O)C(O)C(=O)O	47	8.3	102	96	109	93	83	remaining at 6 h, 2 µM [3]: 105%; remaining at 6 h, 2 µM [9]: 101%; remaining at 6 h, 2 µM [10]: 103%; remaining at 6 h, 2 µM [11]: 98.3%
N=C(N)Nc1cccc(CCc2cnc(N3CCOCC3)nc2)c1	> 10000							
N=C(N)NC(=O)OCc1cccc(N2CCN(c3cccnc3)CC2)c1F.O=C(O)C(O)C(O)C(=O)O		31	96	94	61	96	99	
N=C(N)NC(=O)Cc1cccc(CCc2cnc(N3CCOCC3)nc2)c1	54							
N=C(N)NC(=O)OCc1ccc(F)c(-c2cnc(N3CCOCC3)nc2)c1F.N=C(N)NC(=O)OCc1ccc(F)c(-c2cnc(N3CCOCC3)nc2)c1F.O=C(O)C(O)C(O)C(=O)O	77	17						
Cl.N=C(N)NC(=O)OCc1cccc(-c2cnc(N3CCOCC3)nc2)c1F	9.2	7.5						
Cc1ncccc1OC1CN(c2cccc(COC(=O)NC(=N)N)c2F)C1.O=C(O)C(O)C(O)C(=O)O	40	≥ 100	91	89	96	77	46	
CN(Cc1cccc(-c2cnc(N3CCOCC3)nc2)c1)C(=O)CN.O=C(O)C(O)C(O)C(=O)O	31	≥ 100						
Cl.Cl.Cl.N=C(N)NC(=O)OCc1cccc(N2CCN(c3ccccn3)CC2)c1	140	≥ 100						
Cc1nc(N2CCOCC2)ncc1-c1cccc(COC(=O)NC(=N)N)c1F.O=C(O)C(O)C(O)C(=O)O	400	90						
N=C(N)NCCc1cccc(CCc2cnc(N3CCOCC3)nc2)c1	> 10000							
Cl.Cl.Cl.N=C(N)NC(=O)OCc1cccc(N2CCN(c3ccncc3)CC2)c1	13	≥ 100	91	86	80	13	25	activity at 20 min, 5 µM [12]: 80%
N=C(N)Nc1ccc(CCc2cnc(N3CCOCC3)nc2)cc1	5100							
CN(Cc1cccc(-c2cnc(N3CCOCC3)nc2)c1)C(=O)NC(=N)N	530							
N=C(N)NC(=O)OCc1cccc(N2CCC(Oc3cccnc3)CC2)c1F.O=C(O)C(O)C(O)C(=O)O	45	≥ 100	96	93	32	11	61	
Cl.Cl.N=C(N)NC(=O)OCc1ccc(F)c(-c2cnc(N3CCOCC3)nc2)c1	99	68						
Cl.Cl.N=C(N)NC(=O)OCc1cccc(-c2cnc(N3CCOCC3)nc2)c1Cl	600	8.2						
Cl.Cl.Cl.N=C(N)NC(=O)OCc1cccc(N2CCN(c3cccnc3)CC2)c1	31	≥ 100	99	55	64	68	92	activity at 20 min, 5 µM [12]: 101%
N=C(N)NC(=O)OCc1cccc(N2CC(Oc3cccnc3)C2)c1F.N=C(N)NC(=O)OCc1cccc(N2CC(Oc3cccnc3)C2)c1F.O=C(O)C(O)C(O)C(=O)O	24	≥ 100	66	84	56	16	78	
N=C(N)NC(=O)Cc1cccc(-c2cnc(N3CCOCC3)nc2)c1	56							
